# Experimental data reported in ChEMBL document CHEMBL1777766, “Design, synthesis and in vitro antibacterial activity of 7-(4-alkoxyimino-3-aminomethylpiperidin-1-yl)fluoroquinolone derivatives” (Bioorg Med Chem Lett, 2011).
# Key:
# Shigella sonnei = experiment: Antibacterial activity against Shigella sonnei 51592; assay type: functional
# Escherichia coli [1] = experiment: Antibacterial activity against Extended spectrum beta-lactamase producing Escherichia coli 08-5; assay type: functional
# Escherichia coli [2] = experiment: Antibacterial activity against Escherichia coli ATCC 25922; assay type: functional
# Streptococcus pneumoniae [3] = experiment: Antibacterial activity against penicillin-resistant Streptococcus pneumoniae 08-2; assay type: functional
# [4] = tested on: Staphylococcus epidermidis; experiment: Antibacterial activity against methicillin-sensitive Staphylococcus epidermidis 08-17; assay type: functional
# Enterococcus faecalis [5] = experiment: Antibacterial activity against vancomycin-resistant Enterococcus faecalis EFL1004; assay type: functional
# Providencia rettgeri = experiment: Antibacterial activity against Proteus rettgeri 49006; assay type: functional
# Streptococcus pyogenes = experiment: Antibacterial activity against Streptococcus pyogenes 556; assay type: functional
# Staphylococcus aureus [6] = experiment: Antibacterial activity against methicillin-sensitive Staphylococcus aureus 08-49; assay type: functional
# Pseudomonas aeruginosa [7] = experiment: Antibacterial activity against Pseudomonas aeruginosa 17; assay type: functional
# Proteus vulgaris = experiment: Antibacterial activity against Proteus vulgaris 56; assay type: functional
# [8] = tested on: Staphylococcus epidermidis; experiment: Antibacterial activity against methicillin-resistant Staphylococcus epidermidis 08-18; assay type: functional
# Enterobacter cloacae = experiment: Antibacterial activity against Enterobacter cloacae 45301; assay type: functional
# [9] = Cytotoxicity against african green monkey Vero cells after 24 hrs; assay type: cell-based; settings: chlorocebus sabaeus
# Staphylococcus aureus [10] = experiment: Antibacterial activity against Staphylococcus aureus ATCC 13709; assay type: functional
# Staphylococcus aureus [11] = experiment: Antibacterial activity against methicillin-resistant Staphylococcus aureus 08-52; assay type: functional
# Serratia marcescens = experiment: Antibacterial activity against Serratia marcescens 41002; assay type: functional
# Streptococcus pneumoniae [12] = experiment: Antibacterial activity against Streptococcus pneumoniae ATCC 6301; assay type: functional
# [13] = tested on: Staphylococcus epidermidis; experiment: Antibacterial activity against Staphylococcus epidermidis ATCC 12228; assay type: functional
# [14] = tested on: Acinetobacter calcoaceticus; experiment: Antibacterial activity against Acinetobacter calcoaceticus 25001; assay type: functional
# Enterococcus faecalis [15] = experiment: Antibacterial activity against Enterococcus faecalis ATCC 51299; assay type: functional
# Salmonella typhi = experiment: Antibacterial activity against Bacillus typhi 50035; assay type: functional, Salmonella enterica subsp. enterica serovar Typhi; settings: Salmonella enterica
# Morganella morganii = experiment: Antibacterial activity against Morganella morganii 49086; assay type: functional
# Klebsiella aerogenes = experiment: Antibacterial activity against Enterobacter aerogenes 45102; assay type: functional
# Klebsiella pneumoniae = experiment: Antibacterial activity against Klebsiella pneumoniae ATCC 700603; assay type: functional
# Pseudomonas aeruginosa [16] = experiment: Ratio of MIC for compound to MIC for GMFX against Pseudomonas aeruginosa 17; assay type: functional
# Pseudomonas aeruginosa [17] = experiment: Ratio of MIC for compound to MIC for LVFX against Pseudomonas aeruginosa 17; assay type: functional
# Pseudomonas aeruginosa [18] = experiment: Ratio of MIC for compound to MIC for CPFX against Pseudomonas aeruginosa 17; assay type: functional
SMILES,MIC (Shigella sonnei),MIC (Escherichia coli [1]),MIC (Escherichia coli [2]),MIC (Streptococcus pneumoniae [3]),MIC [4],MIC (Enterococcus faecalis [5]),MIC (Providencia rettgeri),MIC (Streptococcus pyogenes),MIC (Staphylococcus aureus [6]),MIC (Pseudomonas aeruginosa [7]),MIC (Proteus vulgaris),MIC [8],MIC (Enterobacter cloacae),CC50 at 24 h [9],MIC (Staphylococcus aureus [10]),MIC (Staphylococcus aureus [11]),MIC (Serratia marcescens),MIC (Streptococcus pneumoniae [12]),MIC [13],MIC [14],also measured
CCO/N=C1\CCN(c2c(F)cc3c(=O)c(C(=O)O)cn(CCF)c3c2F)CC1CN (racemic),8 µg/mL,> 128 µg/mL,8 µg/mL,32 µg/mL,64 µg/mL,64 µg/mL,32 µg/mL,64 µg/mL,8 µg/mL,64 µg/mL,16 µg/mL,8 µg/mL,16 µg/mL,> 500 µg/mL,8 µg/mL,16 µg/mL,16 µg/mL,64 µg/mL,16 µg/mL,128 µg/mL,MIC (Enterococcus faecalis [15]): 16 µg/mL; MIC (Salmonella typhi): 8 µg/mL; MIC (Morganella morganii): 8 µg/mL; MIC (Klebsiella aerogenes): 16 µg/mL; MIC (Klebsiella pneumoniae): > 128 µg/mL
CO/N=C1\CCN(c2nc3c(cc2F)c(=O)c(C(=O)O)cn3-c2ccc(F)cc2F)CC1CN (racemic),2 µg/mL,> 128 µg/mL,1 µg/mL,0.5 µg/mL,2 µg/mL,4 µg/mL,8 µg/mL,1 µg/mL,0.25 µg/mL,4 µg/mL,8 µg/mL,0.5 µg/mL,2 µg/mL,96 µg/mL,0.5 µg/mL,2 µg/mL,8 µg/mL,1 µg/mL,0.5 µg/mL,4 µg/mL,Ratio (Pseudomonas aeruginosa [16]): 2; Ratio (Pseudomonas aeruginosa [17]): 2; Ratio (Pseudomonas aeruginosa [18]): 2; MIC (Enterococcus faecalis [15]): 2 µg/mL; MIC (Salmonella typhi): 2 µg/mL; MIC (Morganella morganii): 4 µg/mL; MIC (Klebsiella aerogenes): 2 µg/mL; MIC (Klebsiella pneumoniae): 32 µg/mL
CCO/N=C1\CCN(c2nc3c(cc2F)c(=O)c(C(=O)O)cn3-c2ccc(F)cc2F)CC1CN (racemic),2 µg/mL,> 128 µg/mL,2 µg/mL,0.5 µg/mL,1 µg/mL,4 µg/mL,8 µg/mL,4 µg/mL,0.25 µg/mL,4 µg/mL,4 µg/mL,0.25 µg/mL,2 µg/mL,72.6 µg/mL,0.25 µg/mL,1 µg/mL,16 µg/mL,2 µg/mL,0.25 µg/mL,4 µg/mL,Ratio (Pseudomonas aeruginosa [16]): 2; Ratio (Pseudomonas aeruginosa [17]): 2; Ratio (Pseudomonas aeruginosa [18]): 2; MIC (Enterococcus faecalis [15]): 1 µg/mL; MIC (Salmonella typhi): 2 µg/mL; MIC (Morganella morganii): 4 µg/mL; MIC (Klebsiella aerogenes): 2 µg/mL; MIC (Klebsiella pneumoniae): 32 µg/mL
CO/N=C1\CCN(c2c(F)cc3c(=O)c(C(=O)O)cn(C4CC4)c3c2OC)CC1CN (racemic),4 µg/mL,> 128 µg/mL,4 µg/mL,4 µg/mL,4 µg/mL,8 µg/mL,8 µg/mL,8 µg/mL,0.25 µg/mL,8 µg/mL,8 µg/mL,4 µg/mL,> 128 µg/mL,395 µg/mL,0.5 µg/mL,4 µg/mL,8 µg/mL,4 µg/mL,1 µg/mL,4 µg/mL,MIC (Enterococcus faecalis [15]): 4 µg/mL; MIC (Salmonella typhi): 4 µg/mL; MIC (Morganella morganii): 4 µg/mL; MIC (Klebsiella aerogenes): 4 µg/mL; MIC (Klebsiella pneumoniae): 64 µg/mL
CCO/N=C1\CCN(c2c(F)cc3c(=O)c(C(=O)O)cn(C4CC4)c3c2OC)CC1CN (racemic),8 µg/mL,> 128 µg/mL,4 µg/mL,4 µg/mL,4 µg/mL,8 µg/mL,32 µg/mL,8 µg/mL,0.25 µg/mL,32 µg/mL,32 µg/mL,2 µg/mL,> 128 µg/mL,173 µg/mL,1 µg/mL,2 µg/mL,32 µg/mL,8 µg/mL,2 µg/mL,8 µg/mL,MIC (Enterococcus faecalis [15]): 4 µg/mL; MIC (Salmonella typhi): 4 µg/mL; MIC (Morganella morganii): 16 µg/mL; MIC (Klebsiella aerogenes): 16 µg/mL; MIC (Klebsiella pneumoniae): 128 µg/mL
